In patent US20210283139A1, “BIFUNCTIONAL MOLECULES FOR TARGETING UCHL5” (AMPHISTA THERAPEUTICS LTD, priority 2018, published 2021):

Tests used:
Brd2 = Brd2 (Homo sapiens, UniProt P25440); experiment: Immunoblot in MV4-11 cells; format: cell-based; set-up: endogenous in cells; host or cells: MV4-11; settings: MV4-11, 6 h, increasing concentrations
Protocol: (§1) MV4-11 (0.7×10^6 cells/mL) were seeded in 10 cm plates (10 mL DMEM supplemented with 10% FBS and L-glutamine) overnight before treatment with compounds at the desired concentration and with a final DMSO concentration of 0.1% v/v. After 6 h incubation time, cells were washed 2× with DPBS (Gibco) and lysed using 85 μL RIPA buffer (Sigma-Aldrich) supplemented with cOmplete Mini EDTA-free protease inhibitor cocktail (Roche) and benzonase. Lysates were clarified by centrifugation (20,000 g, 10 min, 4° C.) and the total protein content of the supernatant was quantified using a Bradford colorimetric assay. Samples were prepared using equal amounts of total protein and LDS sample buffer (Invitrogen). For immunoblot analysis, the following antibodies were used: anti-Brd2 (ab139690, 1:2,000 dilution), anti-Brd3 (ab50818, 1:500 dilution), anti-Brd4 (ab128874, 1:1,000 dilution), anti-c-myc (ab32072, 1:1,000 dilution), anti- total PARP (BD Bioscience #556494; 1:1,000 dilution), anti-cleaved PARP (CST-9541T, 1:1,000 dilution), and anti-Tubulin hFAB-rhodamine (BioRad, 12004166, 1:10,000 dilution).

Brd3 = Brd3 (Homo sapiens, UniProt Q15059); experiment: Immunoblot in MV4-11 cells; format: cell-based; set-up: endogenous in cells; host or cells: MV4-11; settings: MV4-11, 6 h, increasing concentrations
Protocol: as §1

Brd2, sequence (P25440 whole entry): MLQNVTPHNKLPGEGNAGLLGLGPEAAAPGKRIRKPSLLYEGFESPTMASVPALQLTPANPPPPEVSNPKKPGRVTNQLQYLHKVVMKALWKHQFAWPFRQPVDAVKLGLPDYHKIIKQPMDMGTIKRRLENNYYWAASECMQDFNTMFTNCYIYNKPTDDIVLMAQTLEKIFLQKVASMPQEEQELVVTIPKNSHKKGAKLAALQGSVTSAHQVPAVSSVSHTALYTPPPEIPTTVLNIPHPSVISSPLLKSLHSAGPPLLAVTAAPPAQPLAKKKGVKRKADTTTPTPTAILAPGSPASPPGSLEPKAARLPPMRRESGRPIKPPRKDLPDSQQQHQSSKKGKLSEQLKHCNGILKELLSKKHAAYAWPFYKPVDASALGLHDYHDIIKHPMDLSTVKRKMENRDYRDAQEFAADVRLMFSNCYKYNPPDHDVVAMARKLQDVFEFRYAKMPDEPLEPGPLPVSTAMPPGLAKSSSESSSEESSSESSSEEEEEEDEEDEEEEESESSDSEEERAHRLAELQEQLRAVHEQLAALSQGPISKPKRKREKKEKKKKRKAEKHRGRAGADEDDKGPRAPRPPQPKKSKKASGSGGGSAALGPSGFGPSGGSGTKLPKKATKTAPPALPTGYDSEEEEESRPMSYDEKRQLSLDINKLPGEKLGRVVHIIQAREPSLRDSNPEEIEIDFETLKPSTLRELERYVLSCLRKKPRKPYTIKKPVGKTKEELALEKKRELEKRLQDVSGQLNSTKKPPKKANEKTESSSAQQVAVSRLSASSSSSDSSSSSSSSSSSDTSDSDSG
Brd3, sequence (Q15059 whole entry): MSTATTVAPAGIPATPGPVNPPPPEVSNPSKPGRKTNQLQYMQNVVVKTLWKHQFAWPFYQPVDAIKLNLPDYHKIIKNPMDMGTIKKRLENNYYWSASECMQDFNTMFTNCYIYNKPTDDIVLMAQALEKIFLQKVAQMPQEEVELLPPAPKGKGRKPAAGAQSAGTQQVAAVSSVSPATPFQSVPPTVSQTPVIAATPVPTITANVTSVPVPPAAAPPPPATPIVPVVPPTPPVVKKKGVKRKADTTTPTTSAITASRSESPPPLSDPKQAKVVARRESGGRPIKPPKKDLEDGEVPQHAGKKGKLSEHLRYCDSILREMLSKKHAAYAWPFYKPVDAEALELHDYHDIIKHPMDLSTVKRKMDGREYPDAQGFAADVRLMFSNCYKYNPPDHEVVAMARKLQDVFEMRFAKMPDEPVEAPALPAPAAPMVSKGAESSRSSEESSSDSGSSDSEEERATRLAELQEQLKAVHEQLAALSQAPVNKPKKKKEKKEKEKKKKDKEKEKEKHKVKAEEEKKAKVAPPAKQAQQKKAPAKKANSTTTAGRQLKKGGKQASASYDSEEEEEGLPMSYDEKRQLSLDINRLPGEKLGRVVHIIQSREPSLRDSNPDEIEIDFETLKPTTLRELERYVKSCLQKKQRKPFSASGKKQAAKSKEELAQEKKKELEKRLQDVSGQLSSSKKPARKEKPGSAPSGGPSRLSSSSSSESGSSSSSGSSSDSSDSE

- Brd2 levels (Brd2): depletion
- Brd3 levels (Brd3): depletion
SMILES: CCCC(NC(=O)/C(C#N)=C/c1nccs1)c1ccc(OCCOCCOCCOCCOCCOCCOCCNC(=O)c2ccc(-c3ccc4c(c3)[C@H](Nc3ccc(Cl)cc3)C[C@H](C)N4C(C)=O)cc2)cc1 (some centres unmarked) [Example 05IB9]
